In EP4567031A1, “HPK1 INHIBITOR, PREPARATION METHOD THEREFOR, AND USE THEREOF” (Beijing Earthwise Technology Co., Ltd., priority 2022, dated 2024):
pEC50, pIC50: −log10 of the molar value.

Each compound was assayed against HPK1 (Homo sapiens, UniProt Q92918) (assay: HPK1 HTRF kinase assay). Conditions: 1000 µM ATP; 50 nM HPK1; STK1 substrate; read-out: HPK1, IC50.
Format: biochemical
Description: The reaction was initiated by adding 50 nM HPK1. After 120 minutes of reaction, the assay was terminated by adding 10 µL of Detection Mix.
The ratio of the signal at 665 nm to the signal at 615 nm was converted to the percentage of inhibition. Inhibition % = (maximum value - sample value) / (maximum value - minimum value)×100. The minimum value refers to the value measured in a well without enzyme but with DMSO and substrate, and the maximum value refers to the value measured in a well with DMSO, enzyme and substrate. IC50 values were calculated by XLFit (version 5.3.1.3) in Excel. Equation: Y = Bottom + (Top - Bottom) / (1 + (IC50/X) ^ HillSlope).

HPK1, sequence (Q92918 whole entry, species assumed): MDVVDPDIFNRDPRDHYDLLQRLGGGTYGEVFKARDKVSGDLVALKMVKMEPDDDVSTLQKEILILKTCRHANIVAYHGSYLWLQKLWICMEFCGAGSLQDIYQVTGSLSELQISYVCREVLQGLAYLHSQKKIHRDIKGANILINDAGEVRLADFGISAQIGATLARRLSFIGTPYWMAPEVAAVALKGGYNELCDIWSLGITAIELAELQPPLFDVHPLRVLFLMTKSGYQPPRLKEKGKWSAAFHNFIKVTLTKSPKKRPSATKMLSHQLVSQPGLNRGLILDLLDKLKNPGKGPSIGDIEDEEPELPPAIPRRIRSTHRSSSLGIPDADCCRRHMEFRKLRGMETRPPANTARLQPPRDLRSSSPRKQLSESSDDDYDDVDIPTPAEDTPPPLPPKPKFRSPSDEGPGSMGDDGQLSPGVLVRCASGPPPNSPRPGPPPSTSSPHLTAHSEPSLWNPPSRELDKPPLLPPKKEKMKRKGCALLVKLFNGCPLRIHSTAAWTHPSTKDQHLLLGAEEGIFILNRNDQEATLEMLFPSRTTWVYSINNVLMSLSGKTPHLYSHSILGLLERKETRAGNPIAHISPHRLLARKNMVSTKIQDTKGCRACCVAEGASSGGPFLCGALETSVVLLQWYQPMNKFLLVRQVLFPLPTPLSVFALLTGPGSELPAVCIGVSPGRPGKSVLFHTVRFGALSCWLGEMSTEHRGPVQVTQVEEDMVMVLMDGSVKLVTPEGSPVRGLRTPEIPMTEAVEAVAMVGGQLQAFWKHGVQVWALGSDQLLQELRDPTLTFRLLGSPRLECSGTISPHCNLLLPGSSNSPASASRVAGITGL

Row | Compound | pIC50
1 | Cc1ccnn2c(-c3cc4c(c5c3CNC5=O)Nc3ccc(N5CCOC(C(C)(C)O)C5)cc3C4(C)C)cnc12 (stereo not drawn) [Example 33] | 7.94
2 | CC1(C)c2cc(-c3cnn4cccnc34)c3c(c2Nc2cccc(OC4CCNC4)c21)C(=O)NC3 (stereo not drawn) [Example 58] | 5.38
3 | COc1ccnc2c(-c3cc4c(c5c3CNC5=O)Nc3ccc(N5CCOCC5)cc3C4(C)C)cnn12 [Example 66] | 7.96

Same assay, conditions: HPK1, IC50 (nM), 1000 µM ATP; 50 nM HPK1; STK1 substrate

Row | Compound | IC50 [nM]
4 | Cc1ccn2c(-c3cc4c(c5c3CNC5=O)Nc3ccc(N5CCOC(C(C)(C)O)C5)cc3C4(C)C)cnc2c1F (single isomer, unassigned) [Example 88] | 11.6
5 | Cc1ccn2c(-c3cc4c(c5c3CNC5=O)Nc3ccc(N5CCOC(C(C)(C)O)C5)cc3C4(C)C)cnc2c1F (single isomer, unassigned) [Example 89] | 8.13
6 | COC1CCCn2c(-c3cc4c(c5c3CNC5=O)Nc3ccc(N5CCOCC5)cc3C4(C)C)cnc21 (single isomer, unassigned) [Example 91] | 4.24

What follows are compounds tested on human Pan T cells (assay: Human Pan T cell IL-2 ELISA). Conditions: Anti-CD3 and Anti-CD28, 48 hours, supernatant IL-2 ELISA, read-out: IL-2 release, EC50.
Format: cell-based
Method in brief: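 Human Pan T cells (1×10^6 cells/ml) stimulated with plate-bound anti-CD3 plus anti-CD28 and treated 48 h with compound at 9 final concentrations, 39.063–10000 nM. Supernatant IL-2 by ELISA, expressed as fold over DMSO wells; EC50 from four-parameter logistic fit.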

Row | Compound | pEC50
7 | CO[C@H]1CCCn2c(-c3cc4c(c5c3CNC5=O)Nc3ccc(N5CC6CCC(C5)O6)cc3C4(C)C)cnc21 [Example 196] | 7.57

Same assay, conditions: Homo sapiens, T-cell, 48 h, Anti-CD3 and Anti-CD28, supernatant IL-2 ELISA, read-out: IL-2 release, EC50

Row | Compound | pEC50
8 | Cc1ccn2c(-c3cc4c(c5c3CNC5=O)Nc3ccc(N5CCOC(C(C)(C)O)C5)cc3C4(C)C)cnc2c1F (single isomer, unassigned) [Example 88] | 7.91
9 | CC1(C)c2cc(-c3cnc4cc(F)ccn34)c3c(c2Nc2ccc(N4CCOC(C(C)(C)O)C4)c(F)c21)C(=O)NC3 (stereo not drawn) [Example 124] | 7.81
10 | COCC1CN(c2ccc3c(c2)C(C)(C)c2cc(-c4cnc5c(F)c(C)ccn45)c4c(c2N3)C(=O)NC4)CCO1 (stereo not drawn) [Example 131] | 8.08
11 | CC1(C)c2cc(N3CCOCC3)ccc2Nc2c1cc(-c1cnc3cnccn13)c1c2C(=O)NC1 [Example 156] | 8.56
12 | CCOc1nccn2c(-c3cc4c(c5c3CNC5=O)Nc3ccc(N5CCOCC5)cc3C4(C)C)cnc12 [Example 160] | 7.90
13 | CC1(C)c2cc(N3CCOCC3)ccc2Nc2c1cc(-c1cnc3cc(C(F)F)ccn13)c1c2C(=O)NC1 [Example 161] | 8.20
14 | CCc1nccn2c(-c3cc4c(c5c3CNC5=O)Nc3ccc(N5CCOCC5)cc3C4(C)C)cnc12 [Example 164] | 7.77
15 | CC1(C)c2cc(N3CCOCC3)ccc2Nc2c1cc(-c1cnc3cc(C#N)ccn13)c1c2C(=O)NC1 [Example 165] | 8.32
16 | CC1(C)c2cc(N3CCO[C@@H](C(C)(C)O)C3)ccc2Nc2c1cc(-c1cnn3cc(C(F)F)ccc13)c1c2C(=O)NC1 [Example 169] | 8.19
17 | COc1ccnc2c(-c3cc4c(c5c3CNC5=O)Nc3ccc(N5CCO[C@@H](C(C)(C)O)C5)cc3C4(C)C)cnn12 [Example 171] | 8.20
18 | CC1(C)c2cc(N3CCOCC3)ccc2Nc2c1cc(-c1cnc3c(OC(F)F)nccn13)c1c2C(=O)NC1 [Example 172] | 8.09
19 | Cc1nccn2c(-c3cc4c(c5c3CNC5=O)Nc3ccc(N5CCOCC5)cc3C4(C)C)cnc12 [Example 173] | 8.42
20 | Cn1c(-c2cc3c(c4c2CNC4=O)Nc2ccc(N4CCO[C@@H](C(C)(C)O)C4)cc2C3(C)C)cnc1N1CCOCC1 [Example 174] | 7.41
21 | CC1(C)c2cc(N3CCO[C@@H](C(C)(C)O)C3)ccc2Nc2c1cc(-c1cnc3c(F)c(C#N)ccn13)c1c2C(=O)NC1 [Example 179] | 8.16
22 | CC1(C)c2cc(N3CCOCC3)ccc2Nc2c1cc(-c1cnc3c(OC4COC4)nccn13)c1c2C(=O)NC1 [Example 184] | 7.85
23 | Cc1ccn2c(-c3cc4c(c5c3CNC5=O)Nc3ccc(N5CCOCC5)cc3C4(C)C)cnc2n1 [Example 185] | 8.66
24 | COc1ccn2c(-c3cc4c(c5c3CNC5=O)Nc3ccc(N5CCOCC5)cc3C4(C)C)cnc2c1 [Example 186] | 8.10
25 | CC1(C)c2cc(N3CCOCC3)ccc2Nc2c1cc(-c1cnc3c(C4COC4)nccn13)c1c2C(=O)NC1 [Example 188] | 7.14
26 | COc1ccn2c(-c3cc4c(c5c3CNC5=O)Nc3ccc(N5CCOCC5)cc3C4(C)C)cnc2n1 [Example 189] | 8.24
27 | CC1(C)c2cc(N3CCOCC3)ccc2Nc2c1cc(-c1cnc3c(C#N)nccn13)c1c2C(=O)NC1 [Example 192] | 7.72
28 | CC1(C)c2cc(N3CCOCC3)ccc2Nc2c1cc(-c1cnc3c(F)c(C(F)F)ccn13)c1c2C(=O)NC1 [Example 193] | 8.02
29 | COc1nccn2c(-c3cc4c(c5c3CNC5=O)Nc3ccc(N5CCN6CCOCC6C5)cc3C4(C)C)cnc12 (stereo not drawn) [Example 194] | 8.37
30 | COCC1CN(c2ccc3c(c2)C(C)(C)c2cc(-c4cnc5c(OC)nccn45)c4c(c2N3)C(=O)NC4)CCO1 (stereo not drawn) [Example 195] | 8.43
31 | CC1(C)c2cc(N3CCOCC3)ccc2Nc2c1cc(-c1cnc3nc(C(F)F)ccn13)c1c2C(=O)NC1 [Example 197] | 7.96
32 | CC1(C)c2cc(N3CCOCC3)ccc2Nc2c1cc(-c1cnc3c(F)c(C#N)ccn13)c1c2C(=O)NC1 [Example 198] | 8.28
33 | COc1nccn2c(-c3cc4c(c5c3CNC5=O)Nc3ccc(N5C6CCC5COC6)cc3C4(C)C)cnc12 [Example 232] | 7.96

More lines, now with the values ahead:

Row | pEC50 | Compound
34 | 7.62 | CC1(C)c2cc(N3CCOCC3)ccc2Nc2c1cc(-c1cnc3c(OC4CC4)nccn13)c1c2C(=O)NC1 [Example 199]
35 | 8.85 | COCC1(O)CCN(c2ccc3c(c2)C(C)(C)c2cc(-c4cnc5c(OC)nccn45)c4c(c2N3)C(=O)NC4)CC1 [Example 200]
36 | 8.57 | COc1nccn2c(-c3cc4c(c5c3CNC5=O)Nc3ccc(N5CCOC6(CC6)C5)cc3C4(C)C)cnc12 [Example 201]
37 | 8.18 | CC1(C)c2cc(N3CCOC(C4(O)CC4)C3)ccc2Nc2c1cc(-c1cnc3cc(C(F)F)ccn13)c1c2C(=O)NC1 (stereo not drawn) [Example 205]
38 | 7.00 | CC1(C)c2cc(N3CCOCC3)ccc2Nc2c1cc(-c1cnc3cc(N4CCC4)ccn13)c1c2C(=O)NC1 [Example 206]
39 | 7.64 | CC1(C)c2cc(N3CCOCC3)ccc2Nc2c1cc(-c1cnc3cc(N4CC(F)C4)ccn13)c1c2C(=O)NC1 [Example 207]
40 | 7.80 | CC(C)(O)c1ccn2c(-c3cc4c(c5c3CNC5=O)Nc3ccc(N5CCOCC5)cc3C4(C)C)cnc2c1 [Example 208]
41 | 8.48 | COc1c(F)ccn2c(-c3cc4c(c5c3CNC5=O)Nc3ccc(N5CCOCC5)cc3C4(C)C)cnc12 [Example 209]
42 | 7.26 | CC1(C)c2cc(N3CCOCC3)ccc2Nc2c1cc(-c1cnc3c(N4CCC4)nccn13)c1c2C(=O)NC1 [Example 211]
43 | 8.27 | C#Cc1ccn2c(-c3cc4c(c5c3CNC5=O)Nc3ccc(N5CCOCC5)cc3C4(C)C)cnc2c1 [Example 216]
44 | 7.72 | CC1(C)c2cc(N3CCOCC3)ccc2Nc2c1cc(-c1cnc3cc(OC4COC4)ccn13)c1c2C(=O)NC1 [Example 217]
45 | 8.19 | CC1(C)c2cc(N3CCOCC3)ccc2Nc2c1cc(-c1cnc3c(C(F)F)nccn13)c1c2C(=O)NC1 [Example 222]
46 | 7.48 | CC1(C)c2cc(N3CCOCC3)ccc2Nc2c1cc(-c1cnc3c(OC4CNC4)nccn13)c1c2C(=O)NC1 [Example 224]
47 | 8.09 | COc1ccn2c(-c3cc4c(c5c3CNC5=O)Nc3ccc(N5CCOCC5)cc3C4(C)C)cnc2c1F [Example 225]
48 | 8.06 | CC1(C)c2cc(N3CCOCC3)ccc2Nc2c1cc(-c1cnn3cc(C#N)ccc13)c1c2C(=O)NC1 [Example 237]
49 | 7.24 | COc1nccn2c(-c3cc4c(c5c3CNC5=O)Nc3ccc(N5CCOCC5=O)cc3C4(C)C)cnc12 [Example 238]
50 | 8.04 | CC1(C)c2cc(N3CCOCC3)ccc2Nc2c1cc(-c1cnc3cc(C#N)cnn13)c1c2C(=O)NC1 [Example 246]
51 | 8.04 | CC1(C)c2cc(N3CCOCC3)ccc2Nc2c1cc(-c1cnc3nc(N4CC(F)C4)ccn13)c1c2C(=O)NC1 [Example 247]
52 | 8.72 | Cn1cnc2c(-c3cc4c(c5c3CNC5=O)Nc3ccc(N5CCOCC5)cc3C4(C)C)cncc21 [Example 248]
53 | 8.33 | CC1(C)c2cc(N3CCOCC3)ccc2Nc2c1cc(-c1nnc3cc(C#N)ccn13)c1c2C(=O)NC1 [Example 249]
54 | 8.51 | CC1(C)c2cc(N3CCOCC3)ccc2Nc2c1cc(-c1cnc3ncccn13)c1c2C(=O)NC1 [Example 250]
55 | 8.19 | Cc1c(-c2cc3c(c4c2CNC4=O)Nc2ccc(N4CCOCC4)cc2C3(C)C)cnc2c1NCCO2 [Example 251]
56 | 7.27 | CC1(C)c2cc(N3CCOCC3)ccc2Nc2c1cc(-c1cnc3nc(N4CC(O)C4)ccn13)c1c2C(=O)NC1 [Example 253]
57 | 7.55 | CC1(C)c2cc(N3CCOCC3)ccc2Nc2c1cc(-c1cnc3nc(C4CC4)ccn13)c1c2C(=O)NC1 [Example 254]
58 | 8.30 | COc1nccn2c(-c3cc4c(c5c3CNC5=O)Nc3ccc(C5CNC(=O)C5)cc3C4(C)C)cnc12 (stereo not drawn) [Example 255]
59 | 7.80 | CC1(O)CCN(c2ccc3c(c2)C(C)(C)c2cc(-c4cnc5nc(C(F)F)ccn45)c4c(c2N3)C(=O)NC4)CC1 [Example 256]
60 | 6.81 | CN(C)C(=O)c1ccc2c(c1)C(C)(C)c1cc(-c3cnc4nc(C(F)F)ccn34)c3c(c1N2)C(=O)NC3 [Example 257]
61 | 8.21 | CC1(C)c2cc(N3CCOCC3)ccc2Nc2c1cc(-c1cnc3c(=O)n(C(F)F)ccn13)c1c2C(=O)NC1 [Example 258]
62 | 7.89 | COc1nccn2c(-c3cc4c(c5c3CCNC5=O)Nc3ccc(N5CCOCC5)cc3C4(C)C)cnc12 [Example 280]
63 | 7.36 | CC1(C)c2cc(N3CCOCC3)ccc2Nc2c1cc(-c1cnc3nc(C(F)F)ccn13)c1c2C(=O)NCC1 [Example 282]
